# What was measured:
# MDA-MB-231 cells = assay: MTT cytotoxicity assay in MDA-MB-231 cells; assay type: cell-based
# Protocol: (§1) All the experiments were performed in triplicates and repeated twice and the data has been presented as mean±SD. Statistical analysis was conducted with the Graph Pad 4 prism program using one-way ANOVA. The p values used for comparisons were <0.05. IC50 values were calculated using Kyplot software.
# (§2) In order to determine whether acidic sophorolipid enhanced the bioavailability of Curcumin in cancerous cell lines, the cytotoxic potential of the aqueous SL(A)+Cur complex was tested in breast cancer lines MCF-7 and MDA-MB-231 and was compared with that of aqueous SL(A), Cur in water, and Cur dissolved in ethanol, the latter was used as a positive control.
# (§3) Cyto-toxicity analysis of the present curcumin-SL(A) complex was performed using mammalian breast cancer cell lines by the MTT dye uptake assay. […] MTT solution (5 mg/ml) was added to each well and the cells were cultured for another 4 h at 37° C. in a 5% CO2 incubator. The formazan crystals formed were dissolved by addition of 90 μL of SDS-DMF (20% SDS in 50% DMF). After 15 min, the concentration of colored formazan derivative was determined by measuring optical density (OD) using the ELISA microplate reader (Biorad, Hercules, Calif.) at 570 nm (OD: 570-630 nm). The percentage viability was calculated as: % Viability=[OD of treated cells/OD of control cells]×100 Percentage Viability Observed Post Treatment
# MCF-7 cells = assay: cells; assay type: cell-based
# Protocol: as §1, §2, §3
# [1] = Dynamic Light Scattering (DLS) measurements, particle size; assay type: physicochemical; conditions: 10 mg dissolved in 10 ml H2O
# Protocol: The Dynamic Light Scattering (DLS) measurements were carried using the out on Brookhaven Instrument model 90 Plus Particle Size Analyzer. The solutions, i.e. Cur, SL(A) and the present SL(A)+Curcumin nano-assembly were analyzed at a constant shutter opening diameter in the DLS apparatus. […] This was also confirmed with the results obtained by SEM and TEM analysis depicted in FIG. 4. Field emission scanning electron microscopy images acquired on FEI QUANTA 200 microscope, equipped with a tungsten filament gun, operating at WD 10.6 mm and 20 kV. A 10 μL aliquot of all three sample solution were placed on silicon wafer and fixed on copper stubs with help of carbon tape. The samples were dried at room temperature for overnight and images were recorded without gold coating.
# [2] = Appearance / solubilization of aqueous test solutions; assay type: physicochemical; conditions: 100 μg/ml
# Protocol: Optical properties of the present complex SL(A)+ curcumin complex were determined by UV-Vis and Photoluminescence studies analysis. Accordingly, the optical properties of SL(A), curcumin and the present sophorolipid-curcumin (SL(A)+Cur) self-assembly were compared. UV-Vis absorption spectra were recorded on Varian CARY 100 Bio UV-Vis spectrophotometer respectively, with 10 mm quartz cell at 25±0.1° C. For recording the spectra, 3 ml solutions of SL(A), Cur and SL(A)+Cur solution were prepared with having a concentration of 100 μg/ml. The solutions of this were mixed gently and subsequently the spectra were recorded.
# Visible differences in the appearance of each of the test solutions were observed.
# Zeta potential = assay type: physicochemical; conditions: dispersions without any dilution
# Protocol: The surface charges of the SL(A), Cur and SL(A)+Cur were determined using a zeta potential analyzer (Brookhaven Instruments Corporation, NY). The average zeta potentials of the nano self-assembly dispersions were determined without any dilution.
compound,measurement,setting,value
"COc1cc(/C=C/C(=O)CC(=O)/C=C/c2ccc(O)c(OC)c2)ccc1O [Cur, diferuloylmethane]",concentration at which cytotoxicity is exhibited,MDA-MB-231 cells,20000 ng/mL
same,activity against the cancerous cell lines,MDA-MB-231 cells; MDA-MB-231,no activity
same,% viability,"MDA-MB-231 cells; MDAMB 231, 5 μg/ml",100%
same,% viability,"MDA-MB-231 cells; MDAMB 231, 10 μg/ml",100%
same,% viability,"MDA-MB-231 cells; MDAMB 231, 20 μg/ml",100%
same,% viability,"MDA-MB-231 cells; MDAMB 231, 40 μg/ml",95%
same,% viability,"MDA-MB-231 cells; MDAMB 231, 80 μg/ml",93%
same,% viability,"MDA-MB-231 cells; MDAMB 231, 120 μg/ml",91%
same,viability at 5 µg/mL,"MCF-7 cells; Homo sapiens, MCF7",100%
same,viability at 10 µg/mL,"MCF-7 cells; Homo sapiens, MCF7",100%
same,viability at 20 µg/mL,"MCF-7 cells; Homo sapiens, MCF7",100%
same,viability at 40 µg/mL,"MCF-7 cells; Homo sapiens, MCF7",95%
same,viability at 80 µg/mL,"MCF-7 cells; Homo sapiens, MCF7",93%
same,viability at 120 µg/mL,"MCF-7 cells; Homo sapiens, MCF7",91%
same,activity against the cancerous cell lines,MCF-7 cells; MCF-7,no activity
same,concentration from which anticancer activity (growth inhibition) commences,"MCF-7 cells; MCF-7, FIG. 7(a), for the complex as concentration of Cur",40 µg/mL
same,relative toxicity at low to moderate dose,"MCF-7 cells; MCF-7, low to moderate dose range (5-20 μg/ml)",more toxic
same,hydrodynamic radius,[1],about 818 nm
same,hydrodynamic radius,[1]; listed as Curcumin,818.6 nm
same,appearance of the solution,[2],turbid
same,zeta potential,Zeta potential,−15.14 mV

# Reference: patent US9931309B2, “Curcumin-sophorolipid complex” (COUNCIL OF SCIENTIFIC & INDUSTRIAL RESEARCH, priority 2014, dated 2018)
